The results in this text go back to PubChem BioAssay AID1259407 (Chemical Carcinogenesis Research Information System (CCRIS), 2018).

The source made the active and inactive calls. No rule for the calls is given here.

The subject of this data set is CCRIS mutagenicity, Ames/micronucleus/aberration tests. The data set is described as follows: CCRIS mutagenicity studies.
[1] abbreviates: Test System: AMES SALMONELLA TYPHIMURIUM, Strain/Indicator: TA97, Metabolic Activation: NONE, Method: PREINCUBATION
Where [2] appears, read: Test System: AMES SALMONELLA TYPHIMURIUM, Strain/Indicator: TA98, Metabolic Activation: NONE, Method: PREINCUBATION
[3] abbreviates: Test System: AMES SALMONELLA TYPHIMURIUM, Strain/Indicator: TA100, Metabolic Activation: NONE, Method: PREINCUBATION
Where [4] appears, read: Test System: AMES SALMONELLA TYPHIMURIUM, Strain/Indicator: TA1535, Metabolic Activation: NONE, Method: PREINCUBATION
Setting [5] is: Test System: AMES SALMONELLA TYPHIMURIUM, Strain/Indicator: TA98, Metabolic Activation: HAMSTER, LIVER, S-9, AROCLOR 1254 (10%), Method: PREINCUBATION
Where [6] appears, read: Test System: AMES SALMONELLA TYPHIMURIUM, Strain/Indicator: TA98, Metabolic Activation: RAT, LIVER, S-9, AROCLOR 1254 (10%), Method: PREINCUBATION
Setting [7] is: Test System: AMES SALMONELLA TYPHIMURIUM, Strain/Indicator: TA100, Metabolic Activation: HAMSTER, LIVER, S-9, AROCLOR 1254 (10%), Method: PREINCUBATION
[8] abbreviates: Test System: AMES SALMONELLA TYPHIMURIUM, Strain/Indicator: TA100, Metabolic Activation: RAT, LIVER, S-9, AROCLOR 1254 (10%), Method: PREINCUBATION
[9] abbreviates: Test System: AMES SALMONELLA TYPHIMURIUM, Strain/Indicator: TA1535, Metabolic Activation: HAMSTER, LIVER, S-9, AROCLOR 1254 (10%), Method: PREINCUBATION
The mark [10] stands for this setting: Test System: AMES SALMONELLA TYPHIMURIUM, Strain/Indicator: TA1535, Metabolic Activation: RAT, LIVER, S-9, AROCLOR 1254 (10%), Method: PREINCUBATION
Setting [11] is: Test System: AMES SALMONELLA TYPHIMURIUM, Strain/Indicator: TA1537, Metabolic Activation: NONE, Method: PREINCUBATION

With `CCCCCCCCCC[N+](C)(C)Cc1ccccc1`, the mutagenic call was “inactive; negative” (Test System: AMES SALMONELLA TYPHIMURIUM, Strain/Indicator: TA97, Metabolic Activation: HAMSTER, LIVER, S-9, AROCLOR 1254 (10 OR 30%), Method: PREINCUBATION); “inactive; negative” under setting [1]; “inactive; negative” (Test System: AMES SALMONELLA TYPHIMURIUM, Strain/Indicator: TA97, Metabolic Activation: RAT, LIVER, S-9, AROCLOR 1254 (10 OR 30%), Method: PREINCUBATION); “inactive; negative” (Test System: AMES SALMONELLA TYPHIMURIUM, Strain/Indicator: TA98, Metabolic Activation: HAMSTER, LIVER, S-9, AROCLOR 1254 (10 OR 30%), Method: PREINCUBATION); “inactive; negative” under setting [2]; “inactive; negative” (Test System: AMES SALMONELLA TYPHIMURIUM, Strain/Indicator: TA98, Metabolic Activation: RAT, LIVER, S-9, AROCLOR 1254 (10 OR 30%), Method: PREINCUBATION). In addition, the mutagenic call by setting is: (Test System: AMES SALMONELLA TYPHIMURIUM, Strain/Indicator: TA100, Metabolic Activation: HAMSTER, LIVER, S-9, AROCLOR 1254 (10 OR 30%), Method: PREINCUBATION) “inactive; negative”; under setting [3], “inactive; negative”; (Test System: AMES SALMONELLA TYPHIMURIUM, Strain/Indicator: TA100, Metabolic Activation: RAT, LIVER, S-9, AROCLOR 1254 (10 OR 30%), Method: PREINCUBATION) “inactive; negative”; (Test System: AMES SALMONELLA TYPHIMURIUM, Strain/Indicator: TA1535, Metabolic Activation: HAMSTER, LIVER, S-9, AROCLOR 1254 (10 OR 30%), Method: PREINCUBATION) “inactive; negative”; under setting [4], “inactive; negative”; (Test System: AMES SALMONELLA TYPHIMURIUM, Strain/Indicator: TA1535, Metabolic Activation: RAT, LIVER, S-9, AROCLOR 1254 (10 OR 30%), Method: PREINCUBATION) “inactive; negative”.

As for `C1=c2ccccc2=C2Cc3ccccc3C3=C4OC4=C1C32` (stereo not given), the mutagenic call (Test System: AMES SALMONELLA TYPHIMURIUM, Strain/Indicator: TA98, Metabolic Activation: NONE, Method: STANDARD PLATE) was “active; positive” and the mutagenic call (Test System: AMES SALMONELLA TYPHIMURIUM, Strain/Indicator: TA98, Metabolic Activation: RAT, LIVER, S-9, AROCLOR 1254, Method: STANDARD PLATE) was “active; positive”.

As for `COC(C)(C)CC(C)=O`, the mutagenic call under setting [5] was “inactive; negative”; the mutagenic call under setting [2] was “inactive; negative”; the mutagenic call under setting [6] was “inactive; negative”; the mutagenic call under setting [7] is “inactive; negative”; the mutagenic call under setting [3] is “inactive; negative”; the mutagenic call under setting [8] was “inactive; negative”. Also, the mutagenic call reads like this: under setting [9], “inactive; negative”; under setting [4], “inactive; negative”; under setting [10], “inactive; negative”; (Test System: AMES SALMONELLA TYPHIMURIUM, Strain/Indicator: TA1537, Metabolic Activation: HAMSTER, LIVER, S-9, AROCLOR 1254 (10%), Method: PREINCUBATION) “inactive; negative”; under setting [11], “inactive; negative”; (Test System: AMES SALMONELLA TYPHIMURIUM, Strain/Indicator: TA1537, Metabolic Activation: RAT, LIVER, S-9, AROCLOR 1254 (10%), Method: PREINCUBATION) “inactive; negative”.

Take `CSCCC=O`: the mutagenic call is “inactive; negative” under setting [2]; “inactive; negative” (Test System: AMES SALMONELLA TYPHIMURIUM, Strain/Indicator: TA98, Metabolic Activation: RAT LIVER S-9, AROCLOR 1254, Method: PREINCUBATION); “inactive; negative” under setting [3]; “inactive; negative” (Test System: AMES SALMONELLA TYPHIMURIUM, Strain/Indicator: TA100, Metabolic Activation: RAT LIVER S-9, AROCLOR 1254, Method: PREINCUBATION); “inactive; negative” under setting [4]; “inactive; negative” (Test System: AMES SALMONELLA TYPHIMURIUM, Strain/Indicator: TA1535, Metabolic Activation: RAT LIVER S-9, AROCLOR 1254, Method: PREINCUBATION). Also, the mutagenic call under setting [11] is “inactive; negative”; the mutagenic call (Test System: AMES SALMONELLA TYPHIMURIUM, Strain/Indicator: TA1537, Metabolic Activation: RAT LIVER S-9, AROCLOR 1254, Method: PREINCUBATION) was “inactive; negative”; the mutagenic call (Test System: AMES SALMONELLA TYPHIMURIUM, Strain/Indicator: TA1538, Metabolic Activation: NONE, Method: PREINCUBATION) is “inactive; negative”; the mutagenic call (Test System: AMES SALMONELLA TYPHIMURIUM, Strain/Indicator: TA1538, Metabolic Activation: RAT LIVER S-9, AROCLOR 1254, Method: PREINCUBATION) is “inactive; negative”; the mutagenic call (Test System: MOUSE LYMPHOMA, Strain/Indicator: L5178Y (TK+/TK-), Metabolic Activation: NONE, Method: SUSPENSION/PLATE) was “active; positive”; the mutagenic call (Test System: MOUSE LYMPHOMA, Strain/Indicator: L5178Y (TK+/TK-), Metabolic Activation: RAT LIVER S-9, AROCLOR 1254, Method: SUSPENSION/PLATE) was “active; positive”.

As to `N#CCc1ccccc1[N+](=O)[O-]`, the mutagenic call was “inactive; negative” (Test System: AMES SALMONELLA TYPHIMURIUM, Strain/Indicator: TA97, Metabolic Activation: HAMSTER, LIVER, S-9, AROCLOR 1254 (10%), Method: PREINCUBATION); “active; positive” under setting [1]; “inactive; negative” (Test System: AMES SALMONELLA TYPHIMURIUM, Strain/Indicator: TA97, Metabolic Activation: RAT, LIVER, S-9, AROCLOR 1254 (10%), Method: PREINCUBATION); “inactive; negative” under setting [5]; “active; positive” under setting [2]; “inactive; negative” under setting [6]. Also, the mutagenic call runs as follows: under setting [7], “active; positive”; under setting [3], “active; positive”; under setting [8], “active; positive”; under setting [9], “active; positive”; under setting [4], “inactive; negative”; under setting [10], “active; positive”.
